# According to patent US20230405057A1, “MEDICAL COMPOSITIONS AND THEIR USE IN TREATING INFLAMMATORY BOWEL DISEASE” (BIOMILLENIA SAS, priority 2019, published 2023):
# “Also recorded” adds a separate entry of the source.
# Legend:
# Format in all cases: cell-based
# Malassezia restricta [1] = assay: Disc diffusion growth inhibition assay (supernatants); details: 6 mm discs soaked with 15 ul supernatant or ketoconazole 1 mg/ml in DMSO; soft agar lawn; 5 days incubation
# Description: (§1) FIG. 1|Inhibition assays of the fungicide ketoconazole as positive control for inhibition and Kazachstania unispora supernatant on M. sympodialis, M. furfur, M. restricts and M. globosa. Inhibition assays were performed using the disc diffusion method. Discs were soaked with ketoconazole (1 mg/ml) or K. unispora supernatant and placed on agar plates containing a soft layer inoculated with a single culture of the different Malassezia species to be tested.
# (§2) In order to identify strains inhibiting Malassezia growth, inhibition assays were performed using the disc diffusion method. This method consists in disposing discs imbibed with potential inhibitory substances on Petri plates containing a strain of interest. After optimal growth of the strain of interest, growth inhibition can be observed around discs soaked with substances having an inhibitory effect. Potential inhibitory substances tested in this experiment are supernatants obtained after individually culturing a collection of fungal and bacterial strains. After an incubation of 10 days in their optimal broth, each culture was centrifuged and the supernatant was filtered and further stored at −20° C. Ketoconazole, a fungicide, was used as a positive control for Malassezia growth inhibition. It was diluted in dimethyl sulfoxide at 1 mg/ml. The collection of supernatants was tested on the following species from the genus Malassezia: Malassezia restricta, Malassezia globosa, Malassezia furfur and Malassezia sympodialis. All strains were streaked from −80° C. stock on Modified Leeming and Notman (MLN) agar plates and incubated 10 days at 30° C. A 5 ml liquid culture of each species was made in MLN broth and incubated at 30° C. for 2 days for M. furfur and M. sympodialis and 5 days for M. restricta and M. globosa. To allow a lawn growth of the different Malassezia strains tested, Petri plates were prepared as follows: a bottom layer of 50 ml Modified Sabouraud Dextrose (MSD) agar was poured in Petri plates. The soft agar, constituting the top layer, was a mix of 12.5 ml MSD agar, 10.5 ml MLN broth and 2 ml of liquid culture. Plates were allowed to dry for one hour, then, 6 mm-diameter Whatman™ discs were soaked with 15 ul of each thawed supernatants and ketoconazole and placed on the soft agar plate containing the solidified Malassezia monoculture layer. After an incubation of 5 days, inhibition area could be easily observed around discs. As expected, ketoconazole inhibited all 4 Malassezia species tested in this experiment. […] The strain from which the inhibitory supernatant has been produced was further sequenced using the Sanger technology. The internal transcribed spacer (ITS) of this strain was taxonomically assigned to the yeast Kazachstania unispora (BLASTn, 99% identity, 99% query cover, e-value 0.00).
# Malassezia furfur = assay: as above; details: 6 mm discs soaked with 15 ul supernatant or ketoconazole 1 mg/ml in DMSO; soft agar lawn; 5 days incubation
# Description: as §1, §2
# Malassezia sympodialis = assay: as above; details: 6 mm discs soaked with 15 ul supernatant or ketoconazole 1 mg/ml in DMSO; soft agar lawn; 5 days incubation
# Description: as §1, §2
# Malassezia globosa [2] = assay: as above; details: 6 mm discs soaked with 15 ul supernatant or ketoconazole 1 mg/ml in DMSO; soft agar lawn; 5 days incubation
# Description: as §1, §2
# Malassezia restricta [3] = assay: Modified disc diffusion assay with living Acetobacter culture; details: 6 mm discs soaked with 15 ul exponentially growing Acetobacter culture or ketoconazole 1 mg/mL in DMSO; 5 days incubation
# Description: (§3) FIG. 1|Inhibition assays of M. restricts and M. globose by growth of Acetobacter fabarum. Discs were soaked with ketoconazole (1 mg/ml in DMSO) or exponentially growing Acetobacter fabarum culture and placed on agar plates containing a soft layer inoculated with a single culture of the different Malassezia species to be tested. In the upper panel, inhibition of Malassezia globosa is shown; in the bottom panel, Malassezia restricta is shown.
# (§4) In order to identify strains whose growth inhibits Malassezia, inhibition assays were performed using a modified disc diffusion method. This method is similar to the classical disk diffusion method that consists in depositing discs imbibed with potential inhibitory substances on Petri plates containing a strain of interest, except that the disks were imbibed with a living culture of an Acetobacter strain. After optimal growth of the strain of interest, growth inhibition can be observed around discs on which the growth of inhibitory bacteria has occurred. Ketoconazole (at 1 mg/mL in DMSO) was used as a positive control for Malassezia growth inhibition. The effect of growth of Acetobacter was tested on Malassezia restricta and Malassezia globosa. All Malassezia strains were streaked from −80° C. stock on Modified Leeming and Notman (MLN) agar plates and incubated 10 days at 30° C. […]
# Malassezia globosa [4] = assay: as above; details: 6 mm discs soaked with 15 ul exponentially growing Acetobacter culture or ketoconazole 1 mg/mL in DMSO; 5 days incubation
# Description: as §3, §4
smiles,measurement,setting,value
CC(=O)N1CCN(c2ccc(OCC3COC(Cn4ccnc4)(c4ccc(Cl)cc4Cl)O3)cc2)CC1 (stereo not drawn) [ketoconazole],growth inhibition (inhibition halo around disc) of Malassezia restricta,Malassezia restricta [1],inhibits growth; also recorded: inhibited
same,growth inhibition (inhibition halo around disc) of Malassezia furfur,Malassezia furfur,inhibits growth; also recorded: inhibited
same,growth inhibition (inhibition halo around disc) of Malassezia sympodialis,Malassezia sympodialis,inhibits growth; also recorded: inhibited
same,growth inhibition (inhibition halo around disc) of Malassezia globosa,Malassezia globosa [2],inhibits growth; also recorded: inhibited
same,growth inhibition (inhibition halo around disc) of Malassezia restricta,Malassezia restricta [3],inhibits growth; also recorded: inhibited
same,growth inhibition (inhibition halo around disc) of Malassezia globosa,Malassezia globosa [4],inhibits growth; also recorded: inhibited
